US20140186364A1, “INHIBITION OF THE NT-3:TRKC BOUND AND ITS APPLICATION TO THE TREATMENT OF CANCER SUCH AS NEUROBLASTOMA” (CENTRE NATIONAL DE LA RECHERCHE SCIENTIFIQUE (CNRS), priority 2008, published 2014)
Residues, ends and D or L forms follow the SMILES beside them. *: point of attachment. Cbz = O=C(OCc1ccccc1)*; CH2F = FC*

Legend:
rat TrkC = target: T1, rat TrkC (Rattus norvegicus, UniProt Q03351); test: TrkC-induced apoptosis in TrkC-transfected HEK293T or 13.S.24 cells (trypan blue, caspase activity, DNA condensation); assay type: cell-based; conditions: for TrkC-induced apoptosis: general caspase inhibitors added after TrkC transfection
T1 construct: We first transiently expressed full-length rat TrkC in HEK293T cells; HA; expressed in transfected cells; host or cells: HEK293T or 13.S.24 olfactory neuroblasts
T1 sequence (Q03351 32-825 isoform Q03351-2 limits assumed): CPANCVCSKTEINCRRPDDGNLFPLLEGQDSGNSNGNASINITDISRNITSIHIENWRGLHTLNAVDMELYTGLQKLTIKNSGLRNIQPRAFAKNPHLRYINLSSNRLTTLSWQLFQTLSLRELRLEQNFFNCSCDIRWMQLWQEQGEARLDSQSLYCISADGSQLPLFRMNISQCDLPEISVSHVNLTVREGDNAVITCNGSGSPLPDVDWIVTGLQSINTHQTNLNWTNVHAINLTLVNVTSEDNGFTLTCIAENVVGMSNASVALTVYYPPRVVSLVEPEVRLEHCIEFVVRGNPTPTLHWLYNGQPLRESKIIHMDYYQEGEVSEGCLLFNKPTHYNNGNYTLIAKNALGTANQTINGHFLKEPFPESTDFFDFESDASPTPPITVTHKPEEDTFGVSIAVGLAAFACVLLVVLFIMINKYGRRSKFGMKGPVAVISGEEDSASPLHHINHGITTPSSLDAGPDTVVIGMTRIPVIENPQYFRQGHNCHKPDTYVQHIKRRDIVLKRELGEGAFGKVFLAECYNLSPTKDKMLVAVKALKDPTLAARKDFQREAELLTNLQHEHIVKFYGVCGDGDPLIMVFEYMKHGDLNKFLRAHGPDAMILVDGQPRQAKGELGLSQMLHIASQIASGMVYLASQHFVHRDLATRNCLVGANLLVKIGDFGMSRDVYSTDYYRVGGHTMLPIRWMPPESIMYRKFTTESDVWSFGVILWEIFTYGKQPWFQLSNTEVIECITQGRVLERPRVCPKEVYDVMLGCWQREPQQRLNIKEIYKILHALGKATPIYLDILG
Experimental: (§1) Transient transfections of Human Embryonic Kidney 293T and olfactory neuroblasts 13.S.24 cells were performed as previously described (4), by using Lipofectamine Plus (Invitrogen, Carlsbad, Calif.) according to the manufacturer's instructions. HEK293T and 13.S.24 cells where cultured in DMEM (Invitrogen) with the addition of 0.1% gentamycin for 13.S.24 cells. The recombinant human NT-3 was purchased from PreproTech (Rocky Hill, N.J.) and added to the culture medium 3 and 24 h after transfection. TrkC expression was monitored by Western blot with an anti-C-terminal antibody purchased from Santa Cruz Biotechnology (sc-139; Santa Cruz, Calif.), 24 h after transfection. Plasma membrane localisation of Trk receptors was performed by FACS analysis. Briefly, […] cells were transfected and labeled successively with anti-HA antibody (1/100; Sigma, St. Louis, Mo.) and anti-rabbit PE (1/100; Jackson ImmunoResearch Laboratories, West Grove, Pa.). Detection was done using a FACSCalibur (BD Biosciences, San Jose, Calif.).
Cell death was analyzed using trypan blue staining procedures, as previously described (6). Either the z-VAD-fmk (TEBU-bio, Le Perray en Yvelines Cedex, France; […]) or the BAF [Boc-Asp(Ome) Fluoromethyl Ketone; Sigma-Aldrich; […]] caspase inhibitors were added to the culture medium just after transfection. The extent of cell death is presented as the percentage of trypan blue-positive cells in the different transfected cell populations. Relative caspase activity was determined by fluorescence measurement of DEVDAFC cleavage, as described in (8). Immunostaining using anti-caspase-3 antibody (Cell Signaling) was described in (4). […] For flow cytometric analysis, stained cells were counted using a FACSCalibur (BD Biosciences) and CellQuest analysis software with excitation and emission settings of 488 nm and 525-550 nm (filter FL1), respectively.

TrkC [1] = test: TrkC caspase cleavage in TrkC-expressing 13.S.24 cells (immunoblot); assay type: cell-based, rat; conditions: 13.S.24 cells expressing TrkC; C-terminal TrkC antibody
Experimental: (§2) To observe the cleavage of TrkC in 13.S.24, MG132 ([…], Z-Leu-Leu-Leuala, Sigma-Aldrich) was added to the culture medium 2 h before harvesting the cells. Cells were then potterised in the Wang buffer (20 mM Hepes KOH/10 mMKCl/1.5 mM MgC12/1 mM Sodium EDTA/1 mM Sodium EGTA/0.1 mM PMSF/1 mM DTT/[…]). Proteins were then analyzed by Western blot using the anti-TrkC antibody (sc-139; Santa Cruz Biotechnology). To monitor TrkC cleavage in vivo, E10.5 OF1 mouse embryos were dissected with a sharpened tungsten needle to isolate the spinal cord, the somites and DRG precursors which were then semidissociated in DMEM F-12 (Invitrogen). The samples were incubated overnight under agitation at 37° C. in the presence or absence of either NT-3 (PreproTech; 10 ng/ml), or BAF (Sigma-Aldrich; […]), or the NT-3 blocking antibody AF1404 (R&D, Minneapolis, Minn.; 1/100). The samples were then lysed directly in the Laemmli sample buffer and the proteins separated on 12% SDS/PAGE. The filter was probed with the anti-TrkC antibody.

TrkC [2] = target: T2, TrkC (Mus musculus, UniProt Q6VNS1); test: TrkC cleavage in semidissociated embryonic mouse DRG (Western blot); assay type: cell-based; conditions: DRG maintained overnight; NT-3 10 ng/ml
T2 construct: embryonic mouse dorsal root ganglion (DRG) were semidissociated and maintained overnight; from tissue; host or cells: spinal cord, somites and DRG precursors of E10.5 OF1 mouse embryos, semidissociated
T2 sequence (Q6VNS1 32-825): as the sequence (Q03351 32-825 isoform Q03351-2 limits assumed) above
Experimental: as §2

TrkC [3] = target: T3, TrkC (Homo sapiens, UniProt Q16288); test: Endogenous TrkC cleavage in CLB-Ge2 cells (western blot); assay type: cell-based; parameters: endogenous in cells; host or cells: CLB-Ge2 human neuroblastoma cells
T3 sequence (Q16288 32-839): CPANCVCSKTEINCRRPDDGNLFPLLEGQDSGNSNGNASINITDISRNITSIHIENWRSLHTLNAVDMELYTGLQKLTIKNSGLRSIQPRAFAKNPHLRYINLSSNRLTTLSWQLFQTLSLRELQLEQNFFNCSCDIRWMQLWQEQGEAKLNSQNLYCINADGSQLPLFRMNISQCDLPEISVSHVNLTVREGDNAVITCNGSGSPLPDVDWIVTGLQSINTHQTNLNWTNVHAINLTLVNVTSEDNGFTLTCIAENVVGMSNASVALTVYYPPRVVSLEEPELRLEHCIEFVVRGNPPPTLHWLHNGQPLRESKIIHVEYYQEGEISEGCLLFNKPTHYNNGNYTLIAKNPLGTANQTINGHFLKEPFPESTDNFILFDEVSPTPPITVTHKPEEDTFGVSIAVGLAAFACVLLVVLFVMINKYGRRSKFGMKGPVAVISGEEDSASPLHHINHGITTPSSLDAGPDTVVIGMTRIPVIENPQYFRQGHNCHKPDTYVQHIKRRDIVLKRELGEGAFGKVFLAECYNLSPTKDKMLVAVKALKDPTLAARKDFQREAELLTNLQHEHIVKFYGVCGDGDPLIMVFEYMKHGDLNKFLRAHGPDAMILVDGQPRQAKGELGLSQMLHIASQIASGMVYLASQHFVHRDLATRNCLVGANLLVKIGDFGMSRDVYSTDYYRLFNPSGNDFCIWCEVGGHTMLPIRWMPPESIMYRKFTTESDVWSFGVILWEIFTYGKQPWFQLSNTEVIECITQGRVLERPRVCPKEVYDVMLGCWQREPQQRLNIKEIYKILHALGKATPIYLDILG
Experimental: 8×10^4 cells were cytospun on coverslips and fixed in 4% PFA. The slides were then incubated at room temperature for one hour with an antibody recognizing human NT-3 (1/300, SC-547). After rinsing in Phosphate Buffer Saline, the slides were incubated with an Alexa-488-Donkey anti-Rabbit antibody (Molecular Probes). Nucleus were visualized with Hoechst staining (Sigma). Expression of TrkC constructs and endogenous TrkC cleavage were monitored by western blot with anti-Trk antibody (sc-11; Santa Cruz Biotechnology) and an anti […]-actin (13E5; Cell Signaling) was used as loading control as previously described (36).

TrkC [4] = target: T3, TrkC; test: Human TrkC-induced cell death in transfected 13.S.24 cells (active caspase-3); assay type: cell-based; parameters: expressed in transfected cells; host or cells: 13.S.24 olfactory neuroblasts; conditions: NT-3 10 ng/ml
Experimental: as §1, with “Detection was done using a FACSCalibur (BD Biosciences, San Jose, Calif.).” left out
Cell death was analyzed using trypan blue staining procedures, as previously described (6). […] Relative caspase activity was determined by fluorescence measurement of DEVDAFC cleavage, as described in (8). […] For flow cytometric analysis, stained cells were counted using a FACSCalibur (BD Biosciences) and CellQuest analysis software with excitation and emission settings of 488 nm and 525-550 nm (filter FL1), respectively.

TrkC caspase cleavage (20 kDa band) (TrkC [3]) | Compound | TrkC-induced apoptosis (rat TrkC) | TrkC cleavage bands (35 and 20 kDa) (TrkC [1]) | 20-kDa TrkC fragment (TrkC [2]) | TrkC-mediated cell death (trypan blue exclusion, caspase activity, DNA condensation) (rat TrkC; rat TrkC-transfected 13.S.24 cells, NT-3 0.5-50 ng/ml) | human TrkC-triggered cell death (TrkC [4])
blocked | COC(=O)CC(NC(=O)OC(C)(C)C)C(=O)CF (stereo not shown) [BAF, boc-aspartyl(OMe)-fluoromethylketone] | fully inhibit TrkC-induced apoptosis | failed to be detected | disappeared | – | –
– | COC(=O)CC[C@H](NC(=O)[C@H](CC(=O)OC)NC(=O)OCc1ccccc1)C(=O)N[C@H](C(=O)N[C@@H](CC(=O)OC)C(=O)CF)C(C)C [DEVD-fmk] | – | fail to block caspase-dependent cleavage of TrkC | – | – | –
– | COC(=O)C[C@H](NC(=O)[C@H](C)NC(=O)[C@@H](NC(=O)OCc1ccccc1)C(C)C)C(=O)CF [zVAD-fmk] (Cbz-Val-Ala-Asp(OMe)-CH2F) | fully inhibit TrkC-induced apoptosis | failed to be detected | – | – | –
– | NT-3: recombinant human NT-3 purchased from PreproTech; ligand of TrkC | – | – | disappeared | inhibited, in a dose-dependent manner | triggers cell death unless NT-3 is present
